Several values for one entry are separate records, joined by “and”; a condition that tells them apart may be missing. Equal values may be shown once.
What was measured:
MRGPRX4 + RAMP1 = molecular target: T1, MRGPRX4 + RAMP1 (Homo sapiens, UniProt Q96LA9); test: BRET2 β-arrestin2 recruitment, MRGPRX4 with RAMP1; type: cell-based; conditions: RAMP1 coexpression vs MRGPRX4 alone (Fig. 5F)
T1 construct: expressed in transfected cells; host or cells: HEK293T
Experimental: (§1) The method for homogenous transfection of β-Arrestin and BRET^2 assay of β-Arrestin recruitment has been described previously ([51]). […] BRET^2 measurements were taken on the BioTek Synergy NEO2 microplate reader.
(§2) The BRET ratio for each sample was determined by calculating the ratio of the light intensity emitted by the GFP10 (515 nm) (acceptor) over the light intensity emitted by the RLuc3 (395 nm) (donor). Net BRET^2 was determined by subtracting the basal BRET^2 (β-arrestin-RLuc3 only) signal from the BRET^2 signals. All BRET values were normalized to the MRGPRX4-only condition.

mock-transfected cells = test: BRET2 β-arrestin recruitment time course, mock-transfected cells; type: cell-based, human; conditions: Fig 5c, 100μM ligand, listed as Ng
MRGPRX4 = molecular target: T2, MRGPRX4 (Homo sapiens, UniProt Q96LA9); test: BRET2 β-arrestin2 recruitment to MRGPRX4; type: cell-based; conditions: for net BRET2 ratio, βArr2 recruitment: Fig 5b, 100µM ligand, replicate values; for net BRET2 ratio, βArr2 recruitment / BRET2 ratio: listed as Ng; for BRET2 ratio: Fig 5c, MRGPRX4, 100μM ligand
T2 construct: expressed in transfected cells; host or cells: HEK293T
From the text: as §1
For MRGPRX4 DNA titration assays, HEK293T cells were cotransfected with either β-Arrestin1 or β-Arrestin2 with increasing amounts of MRGPRX4 (0.5, 1, or 2 pg/cell).
To measure the time-course of β-Arrestin2 recruitment to MRGPRX4 and CALCRL, the transfection and general procedure described above was followed, with the modification that Prolume Purple was added first, followed by addition of the appropriate agonists ([51]).
as §2

T2 sequence (Q96LA9 whole entry): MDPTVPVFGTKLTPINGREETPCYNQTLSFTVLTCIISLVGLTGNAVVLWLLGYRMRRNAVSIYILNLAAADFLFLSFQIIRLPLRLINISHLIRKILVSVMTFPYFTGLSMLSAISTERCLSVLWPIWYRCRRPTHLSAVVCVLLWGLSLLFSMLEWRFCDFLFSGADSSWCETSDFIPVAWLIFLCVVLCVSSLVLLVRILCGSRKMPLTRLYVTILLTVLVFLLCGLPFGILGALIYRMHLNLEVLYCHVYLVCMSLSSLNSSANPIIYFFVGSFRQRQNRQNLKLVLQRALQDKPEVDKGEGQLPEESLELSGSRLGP
T1 sequence (Q96LA9 whole entry): as above

With `CC(C)[C@H]1CC[C@H](C(=O)N[C@H](Cc2ccccc2)C(=O)O)CC1` [Nateglinide] the “decrease in β-arrestin2 recruitment upon nateglinide treatment” value (MRGPRX4 + RAMP1) was ~10%, the BRET2 ratio (mock-transfected cells; 60 s) was 0.008415 and 0.007646 and 0.00794 and the BRET2 ratio (mock-transfected cells; 120 s) was 0.007842 and 0.007685 and 0.007289. For the same molecule, the BRET2 ratio (mock-transfected cells; 180 s) was 0.007259 and 0.007981 and 0.007565, the BRET2 ratio (mock-transfected cells; 240 s) was 0.007155 and 0.006788 and 0.008148 and the BRET2 ratio (mock-transfected cells; 300 s) was 0.007567 and 0.007447 and 0.007514. The BRET2 ratio (mock-transfected cells; 360 s) was 0.008471 and 0.007058 and 0.007429, the BRET2 ratio (mock-transfected cells; 420 s) was 0.007097 and 0.007188 and 0.007508 and the BRET2 ratio (mock-transfected cells; 480 s) was 0.006826 and 0.007196 and 0.007205. The BRET2 ratio (mock-transfected cells; 540 s) was 0.008083 and 0.00749 and 0.00867, the BRET2 ratio (mock-transfected cells; 600 s) was 0.007686 and 0.006192 and 0.007271 and the BRET2 ratio (mock-transfected cells; 660 s) was 0.006698 and 0.007765 and 0.007192. The BRET2 ratio (mock-transfected cells; 720 s) was 0.00801 and 0.006623 and 0.005548, the BRET2 ratio (mock-transfected cells; 780 s) was 0.009777 and 0.007416 and 0.006284 and the BRET2 ratio (mock-transfected cells; 840 s) was 0.007062 and 0.008946 and 0.00672. The BRET2 ratio (mock-transfected cells; 900 s) was 0.007894 and 0.008249 and 0.007741, the BRET2 ratio (mock-transfected cells; 960 s) was 0.008424 and 0.006304 and 0.008892 and the BRET2 ratio (mock-transfected cells; 1020 s) was 0.008684 and 0.007837 and 0.007668. For the same molecule, the BRET2 ratio (mock-transfected cells; 1080 s) was 0.008011 and 0.008281 and 0.007344, the BRET2 ratio (mock-transfected cells; 1140 s) was 0.009425 and 0.00762 and 0.007536 and the BRET2 ratio (mock-transfected cells; 1200 s) was 0.006477 and 0.008078 and 0.009426. For the same molecule, the BRET2 ratio (mock-transfected cells; 1260 s) was 0.008155 and 0.006248 and 0.008937, the BRET2 ratio (mock-transfected cells; 1320 s) was 0.008765 and 0.01027 and 0.007016 and the BRET2 ratio (mock-transfected cells; 1380 s) was 0.009766 and 0.009472 and 0.01001. For the same molecule, the “β-arrestin2 recruitment to MRGPRX4” value (MRGPRX4; 100 μM agonist (Fig. 5B, C)) was “recruited β-arrestin2 more strongly than β-arrestin1”, the “net BRET2 ratio, βArr2 recruitment” value (MRGPRX4; MRGPRX4 20ng, 0.5 pg DNA/cell) was 0.01059 and 0.011 and 0.01083 and 0.009137 and 0.01004 and 0.009779 and 0.007885 and 0.007959 and 0.007875 and 0.009405 and 0.008616 and 0.00928 and 0.007811 and 0.00797 and 0.009994 and 0.008653 and 0.00706 and 0.007614 and 0.007209 and 0.007504 and 0.007132 and 0.006566 and 0.006348 and 0.007157 and 0.004522 and 0.007759 and 0.005207 and the “net BRET2 ratio, βArr2 recruitment” value (MRGPRX4; MRGPRX4 40ng, 1 pg DNA/cell) was 0.01411 and 0.01341 and 0.01314 and 0.01164 and 0.01153 and 0.01104 and 0.009585 and 0.009093 and 0.008671 and 0.0118 and 0.009621 and 0.01107 and 0.01117 and 0.01052 and 0.009545 and 0.01099 and 0.00914 and 0.009334 and 0.008409 and 0.01062 and 0.01019 and 0.008186 and 0.008003 and 0.007557 and 0.007525 and 0.005338 and 0.009291. For the same molecule, the “net BRET2 ratio, βArr2 recruitment” value (MRGPRX4; MRGPRX4 80ng, 2 pg DNA/cell) was 0.01501 and 0.01563 and 0.01506 and 0.0134 and 0.0136 and 0.01318 and 0.01149 and 0.0115 and 0.01095 (2×) and 0.01387 and 0.01159 and 0.01257 and 0.01157 and 0.01276 and 0.01058 and 0.009957 and 0.009364 and 0.01169, the “net BRET2 ratio, βArr2 recruitment” value (MRGPRX4; βArr2 only, 0 pg MRGPRX4 DNA/cell) was 0.0002584 and -0.0001954 and -6.2982e-5 and -0.0001775 and 0.0006514 and -0.0004739 and -9.3811e-5 and 0.0004305 and -0.0003367 and -6.4621e-5 and -0.0005147 and 0.0005793 and -0.0001286 and 0.0001629 and -3.4338e-5 and 0.0006863 and -0.0005797 and -0.0001066 and -6.7124e-5 and 1.05e-5 and 5.6622e-5 and 0.0001307 and -0.0006572 and 0.0005265 and 0.0006391 and 0.0003062 and -0.0009453 and the BRET2 ratio (MRGPRX4; 60 s) was 0.01411 and 0.01234 and 0.0129. For the same molecule, the BRET2 ratio (MRGPRX4; 120 s) was 0.01624 and 0.01368 and 0.01342, the BRET2 ratio (MRGPRX4; 180 s) was 0.01716 and 0.01419 and 0.01539 and the BRET2 ratio (MRGPRX4; 240 s) was 0.01732 and 0.01509 and 0.01494. The BRET2 ratio (MRGPRX4; 300 s) was 0.01643 and 0.01468 and 0.01593, the BRET2 ratio (MRGPRX4; 360 s) was 0.01701 and 0.01469 and 0.01434 and the BRET2 ratio (MRGPRX4; 420 s) was 0.01667 and 0.01531 and 0.01417. The BRET2 ratio (MRGPRX4; 480 s) was 0.01658 and 0.0139 and 0.01409, the BRET2 ratio (MRGPRX4; 540 s) was 0.01614 and 0.01397 and 0.01412 and the BRET2 ratio (MRGPRX4; 600 s) was 0.01601 and 0.01404 and 0.013. For the same molecule, the BRET2 ratio (MRGPRX4; 660 s) was 0.0171 and 0.01418 and 0.0126, the BRET2 ratio (MRGPRX4; 720 s) was 0.01525 and 0.01442 and 0.01263 and the BRET2 ratio (MRGPRX4; 780 s) was 0.01511 and 0.01318 and 0.01349.

From article PMC10165273, “Itch receptor MRGPRX4 interacts with the receptor activity–modifying proteins” (The Journal of Biological Chemistry, 2023)
